Data from US20120318750A1, “METHODS AND COMPOSITIONS FOR COMPLEX BINDING OF METAL IONS” (ChemseQ International AB, priority 2009, published 2012).

What was measured:
[1] = Flotation of copper ions with sequestering agent in a flotation cell, metal analysis of foam; details: 1 mg copper as copper sulphate, sequestering agent:metal 1.2:1, pH 5.5, flotation approx. 30 min
[2] = Flotation of manganese ions with sequestering agent in a flotation cell, metal analysis of foam; details: 1 mg manganese as manganese sulphate, sequestering agent:metal 1.2:1, pH 5.5, flotation approx. 30 min
Text: In order to investigate the separability of a sequestering agent according to the invention a small flotation cell was used. This flotation cell has a volume of approximately 1.6 l, a height of 315 mm and an inner diameter of 80 mm. Compressed air used to form the foam is led through a porous sintered glass filter of diameter 60 mm with a nominal porosity of 10-16 μm (“porosity 4”) mounted at the bottom of the flotation cell. At the top of the flotation cell a cylinder of an inner diameter of 30 mm and a height of 415 mm, with an outlet placed at 72 mm from the bottom, is mounted. The outlet is used to collect the foam and thereby the chelate according to the invention. At the top of the latter cylinder an adjustable valve is mounted to be able to better control the foaming and to direct the foam to the outlet.
was prepared from 2-aminoethanol, tert-butyl bromoacetate and tert-butyl 2-aminotetradecanoate as main ingredients using conventional techniques and was therafter mixed in 500 ml deionised water with 1 mg of manganese in the form of manganese sulphate (in a molar ratio of 1.2:1=sequestering agent: manganese sulphate) and a flotation agent (N,N-dimethyldodecylamine N-oxide, in a molar ratio of 10:1=flotation agent:sequestering agent).
The pH-value of the solution was adjusted to pH 5.5 with 0.1 M sodium hydroxide solution or 0.1 M hydrogen chloride solution. […]

[3] = Precipitation/recovery from a copper(II) sulfate solution by electrolysis, then acidification (Experimental Example 6); details: electrolysis pH 12, 50 min, 300-350 mA
Protocol: The recovery of 2-dodecyl-3-carboxymethyl-3-azapentane diacid was performed in a two-step procedure.
(§1) In the first stage metal ions was removed from the solution by electrolysis at a specified pH and current intensity: The equipment to perform the electrolysis consisted of a Manson EP-601 rectifier and two platinum electrodes in form of a spring (anode) and a basket (cathode).
To a solution of 2-dodecyl-3-carboxymethyl-3-azapentane diacid and copper in the form of copper(II) sulfate (30 ml, in a molar ratio of 1.2:1=sequestering agent: copper(II) sulfate, [sequestrent]=10.5 mM, [Cu^2+]=655 ppm) in a beaker was sodium sulphate (corresponding to 50 mg/l) added, in order to receive wished current intensity. Solutions of 1 M aqueous sodium hydroxide was added to adjust the pH to 12. The total volume of the solution was 150 ml. The electrolysis was performed during 50 min. at a current intensity of 300-350 mA.
In the second step the electrolysis solution was acidified with 1 M aqueous hydrogen chloride to pH=2.4. The precipitated material was removed by filtration (glass filter—Schott u.Gen Mainz 1G2) and dried in a vacuum chamber at 0.8 mbar for 24 hours.
(§2) 99.6 mg precipitate was obtained. Organic analyses were made with the aid of an ESI-MS (recorded on a Micromass Quattro II mass spectrometer coupled with a Harvard Apparatus Pump 11 syringe pump directly into the ESI source of the mass spectrometer at a flow rate of 6 μl/min. The data was processed using MassLynx 4.0 software) in positive and negative mode, and NMR with a Varian 500 instrument. The precipitate contained exclusively of 2-dodecyl-3-carboxymethyl-3-azapentane diacid.
Metal analyses were made with the aid of a Perkin-Elmer AA300 atomic absorption spectrometer.

[4] = Precipitation/recovery from a copper(II) chloride solution by electrolysis with cation exchange membrane, then acidification (Experimental Example 7); details: electrolysis starting pH 4.1, 60 min, 250-300 mA
Protocol: The recovery of 4-dodecyl-3,6,9-tri(carboxymethyl)-3,6,9-triazaundecane diacid was performed in a two-step procedure.
as §1, with “intensity.” for “intensity:”, “EP-60.1” for “EP-601”, “(cathode). The electrodes were separated with a cationic exchange membrane (CMI-7000 Cation exchange membranes—Membranes International INC.)” for “(cathode).”
To a solution of 4-dodecyl-3,6,9-tri(carboxymethyl)-3,6,9-triazaundecane diacid and copper in the form of copper(II) chloride (30 ml, in a molar ratio of 1.2:1=sequestering agent: copper(II) chloride, [Cu^2+]=900 ppm, pH=4.5) in a beaker was sodium sulphate (corresponding to 0.1 M), in order to receive wished current intensity. The pH of the starting solution was 4.1. The total volume of the solution was 300 ml. The electrolysis was performed during 60 min. at a current intensity of 250-300 mA.
In the second step the electrolysis solution was acidified with 1 M aqueous hydrogen chloride to pH=2.4. The precipitated material was removed by filtration (glass filter—Schott u.Gen Mainz 1G2) and dried in a vacuum chamber at 0.8 mbar for 22 hours.
as §2, with “198.7” for “99.6”, “μL/min.” for “μl/min.”, “4-dodecyl-3,6,9-tri(carboxymethyl)-3,6,9-triazaundecane” for “2-dodecyl-3-carboxymethyl-3-azapentane”, “diacid. Metal analyses were made with the aid of a Perkin-Elmer AA300 atomic absorption spectrometer.” for “diacid.”

[5] = Precipitation/recovery of sequestering agent from a copper(II) chloride solution by acidification to pH 1.8; details: acidified to pH=1.8, 5.66 mM sequestrent, 300 ppm copper
Protocol: A stock solution of 4-dodecyl-3,6,9-tri(carboxymethyl)-3,6,9-triazaundecane diacid and copper in the form of copper(II) chloride (20 ml, in a molar ratio of 1.2:1=sequestering agent: copper(II) chloride, [Cu^2+]=900 ppm, pH=4.5) was diluted with milliQ-water to a total volume of 60 ml in a beaker, corresponding to a solution with an initial sequestrent- and copper concentration of 5.66 mM and 300 ppm, respectively. To this solution 2 M aqueous hydrogen chloride was added under magnetical stirring at room temperature to pH=1.8. A light blue precipitate was removed by filtration (P3 glass filter) leaving a colourless transparent filtrate. The light blue precipitate was dried in a vacuum chamber at 0.8 mbar for 19 hours resulting in a light blue solid.
as §2, with “270” for “99.6”, “mode.” for “mode, and NMR with a Varian 500 instrument. The precipitate contained exclusively of 2-dodecyl-3-carboxymethyl-3-azapentane diacid.”
The precipitate contained exclusively of 4-dodecyl-3,6,9-tri(carboxymethyl)-3,6,9-triazaundecane diacid and complexed sequestering agent. […] Metal analyses were made with the aid of a Perkin-Elmer AA300 atomic absorption spectrometer. […]

[6] = Solubility of sequestering agent in a copper(II) chloride solution on stepwise acidification; format: physicochemical; details: 5.66 mM sequestrent, 300 ppm copper, room temperature
Protocol: A stock solution of 4-dodecyl-3,6,9-tri(carboxymethyl)-3,6,9-triazaundecane diacid and copper in the form of copper(II) chloride (20 ml, in a molar ratio of 1.2:1=sequestering agent: copper(II) chloride, [Cu^2+]=900 ppm, pH=4.5) was diluted with milliQ-water to a total volume of 60 ml in a beaker, corresponding to a solution with an initial sequestrent and copper concentration of 5.66 mM and 300 ppm, respectively. To this solution 2 M aqueous hydrogen chloride was added stepwise, under magnetical stirring at room temperature, to follow the solubility behavior of 4-dodecyl-3,6,9-tri(carboxymethyl)-3,6,9-triazaundecane diacid.

solubility observation ([6]; pH<0.5)	solubility observation ([6]; pH=2.8-0.5)	solubility observation ([6]; pH=4.5-2.8)	SMILES	added copper found in the foam [1]	added manganese found in the foam [2]	copper found on the cathode [3]	copper found in the filtrate ([3]; then acidified to pH=2.4)	copper found in the precipitate ([3]; then acidified to pH=2.4)	copper found on the cathode [4]	copper found in the filtrate ([4]; then acidified to pH=2.4)	copper found in the precipitate ([4]; then acidified to pH=2.4)	copper found in the filtrate [5]	copper found in the precipitate [5]
–	–	–	CCCCCCCCCCCCC(C(=O)O)N(CCN(CC(=O)O)CC(=O)O)CC(=O)O (stereo not drawn) [2-dodecyl-3,6-di(carboxymethyl)-3,6-diazaoctane diacid]	~65%	About 35%	–	–	–	–	–	–	–	–
–	–	–	CCCCCCCCCCCCC(C(=O)O)N(CC(=O)O)CC(=O)O (stereo not drawn) [2-dodecyl-3-carboxymethyl-3-azapentane diacid]	~70%	About 10%	99.4%	0.1%	0.5%	–	–	–	–	–
A clear blue aqueous solution	Precipitated material is observed	A clear blue aqueous solution	CCCCCCCCCCCCC(CN(CCN(CC(=O)O)CC(=O)O)CC(=O)O)N(CC(=O)O)CC(=O)O (stereo not drawn) [4-dodecyl-3,6,9-tri(carboxymethyl)-3,6,9-triazaundecane diacid]	–	–	–	–	–	99.8%	0.1%	0.1%	1%	99%
